Patent US10765681B2 (Academia Sinica, priority 2016, dated 2020)
Like-named read-outs stand apart in the source and are kept apart here.

How the values were obtained:
[1] = tested on: H1975 lung cancer cells; experiment: MTT assay, growth of H1975 lung cancer cells; assay type: cell-based; details: Homo sapiens
[2] = tested on: MDA-MB231 breast cancer cells; experiment: MTT assay, growth of MDA-MB231 breast cancer cells; assay type: cell-based; details: Homo sapiens, MDA-MB-231, MDA-MB231 triple-negative breast cancer cell line, Table 3
Experimental: The inhibitory effect of the exemplary compounds against MDA-MB231 breast cancer cell and H1975 lung cancer cell was evaluated. The cytotoxic activity of test compounds was examined by performing a MTT assay.

[3] = NCI-H1975, H1975, MTT, Table 2, read-out: IC50 against the growth of H1975 lung cancer cells
[4] = NCI-H1975, read-out: IC50 against the growth of H1975 lung cancer cells
[5] = NCI-H1975, H1975 lung cancer cell line, MTT, Table 3, read-out: IC50 H1975

Row | SMILES | melting point | IC50 [1, 3] [µM] | IC50 [2] [µM] | IC50 [1, 5] [µM] | IC50 [1, 4] [µM]
1 | CCCCOc1ccc(-c2nc(C(N)=O)c3[nH]c(=O)n(-c4ccccc4OC)c3n2)cc1 [Compound 5c, 2-(4-Butoxyphenyl)-9-(2-methoxyphenyl)-8-oxopurine-6-carboxamide] | 268.7 to 270.2 °C | 4.66 ± 0.05 | – | – | –
2 | COC(=O)c1cccc(-n2c(=O)[nH]c3c(C(N)=O)nc(-c4ccc(OC)c(O)c4)nc32)c1 [Compound 5j, 2-(3-Hydroxy-4-methoxyphenyl)-9-(3-methoxycarbonylphenyl)-8-oxopurine-6-carboxamide] | 333.3 to 334.3 °C | – | – | – | 0.35 ± 0.01
3 | CCCCCCCCCCCCNC(=O)c1cccc(-n2c(=O)[nH]c3c(C(N)=O)nc(-c4ccc(OCC)cc4)nc32)c1 [Compound 8b, 2-(4-Ethoxyphenyl)-9-(3-dodecylcarbamoyl)phenyl-8-oxopurine-6-carboxamide] | – | 10.5 ± 0.25 | – | – | –
4 | CCOc1ccc(-c2nc(C(N)=O)c3[nH]c(=O)n(-c4cccc(C(=O)NCCCCCNC(=O)OC(C)(C)C)c4)c3n2)cc1 [Compound 8d, 2-(4-Ethoxyphenyl)-9-[3-(5-tert-butoxycarbonylamino)pentylcarbamoyl]phenyl-8-oxopurine-6-carboxamide] | – | 15.5 ± 1.96 | – | – | –
5 | CCOc1ccc(-c2nc(C(N)=O)c3[nH]c(=O)n(-c4cccc(C(=O)NCCCCCNC(=O)CCCC[C@@H]5SC[C@@H]6NC(=O)N[C@@H]65)c4)c3n2)cc1 [Compound 8f] | – | – | – | – | 26.3 ± 0.31
6 | COc1ccc(-c2nc(C(N)=O)c3nc(S)n(-c4ccccc4)c3n2)cc1O [Compound 10b, 2-(3-Hydroxy-4-methoxyphenyl)-8-mercapto-9-phenylpurine-6-carboxamide] | 368.9 to 369.7 °C (dec.) | – | – | – | 0.24 ± 0.04
7 | CCOc1ccc(-c2nc(C(N)=O)c3nc(SCC(=O)N4CCN(C(=O)OC(C)(C)C)CC4)n(-c4ccccc4)c3n2)cc1 [Compound 11d, 2-(4-Ethoxyphenyl)-9-phenyl-8-{[(4-tert-butoxycarbonyl)piperazinocarbonyl]methylthio}purine-6-carb oxamide] | – | 1.8 | – | – | –
8 | CCOc1ccc(-c2nc(C#N)c3[nH]c(=O)n(-c4ccc([N+](=O)[O-])cc4)c3n2)cc1 [Compound 12d, 2-(4-Ethoxyphenyl)-9-(4-nitrophenyl)-8-oxopurine-6-carbonitrile] | 293.2 to 294.8 °C | – | 2.6 | 6.2 | –
9 | CCOc1ccc(-c2nc(C#N)c3[nH]c(=O)n(-c4cccc([N+](=O)[O-])c4)c3n2)cc1 [Compound 12e, 2-(4-Ethoxyphenyl)-9-(3-nitrophenyl)-8-oxopurine-6-carbonitrile] | 296.1 to 297.8 °C | – | 3.5 | 4.1 | –
10 | COc1ccc(-c2nc(C#N)c3[nH]c(=O)n(-c4ccccc4OC)c3n2)cc1O [Compound 12f, 2-(3-Hydroxy-4-methoxyphenyl)-9-(2-methoxyphenyl)-8-oxopurine-6-carbonitrile] | 294 to 296 °C | 25.8 | – | 25.8 | –
11 | CCCCNC(=N)c1nc(-c2ccc(OCC)cc2)nc2c1[nH]c(=O)n2-c1ccccc1OC [Compound 13a, 2-(4-Ethoxyphenyl)-9-(2-methoxyphenyl)-8-oxopurine-6-(N-butyl)carboximidamide] | 375 to 377 °C | – | 11.6 | 79 | –
12 | COc1ccc(-c2nc(C(=N)NO)c3[nH]c(=O)n(-c4ccccc4OC)c3n2)cc1O [Compound 14f, 2-(3-Hydroxy-4-methoxyphenyl)-9-(2-methoxyphenyl)-8-oxopurine-6-(N-hydroxy)carboximidamide] | 226 to 228 °C | 2.8 | – | 2.8 | –
13 | CCOc1ccc(-c2nc(C#N)c3nc(OC(=O)OC(C)(C)C)n(-c4ccccc4OC)c3n2)cc1 [Compound 17b, Tert-butyl 6-cyano-2-(4-ethoxyphenyl)-9-(2-methoxyphenyl)purin-8-yl carbonate] | 278 to 280 °C | – | 22 | 13 | –
14 | CCOc1ccc(-c2nc(C#N)c3nc(N4CCOCC4)n(-c4ccccc4OC)c3n2)cc1 [Compound 33b, 2-(4-Ethoxyphenyl)-9-(2-methoxyphenyl)-8-morpholinopurine-6-carbonitrile] | 273 to 275 °C | – | – | 74 | –
15 | CCOc1ccc(-c2nc(C#N)c3nc(NC(=O)OC(C)(C)C)n(-c4ccccc4OC)c3n2)cc1 [Compound 34a, Tert-butyl (6-cyano-2-(4-ethoxyphenyl)-9-(2-methoxyphenyl)purin-8-yl)carbamate] | 260 to 262 °C (dec.) | – | – | – | –

Second part, led by results:

Row | melting point | IC50 [1, 3] [µM] | IC50 [2] [µM] | IC50 [1, 5] [µM] | SMILES | IC50 [1, 4] [µM]
16 | 307.6 to 309 °C | – | 26 | 7 | CCOc1ccc(-c2nc(C(N)=O)c3[nH]c(=O)n(-c4ccc([N+](=O)[O-])cc4)c3n2)cc1 [Compound 5k, 2-(4-Ethoxyphenyl)-9-(4-nitrophenyl)-8-oxopurine-6-carboxamide] | –
17 | – | 7.91 ± 0.18 | – | – | CCOc1ccc(-c2nc(C(N)=O)c3[nH]c(=O)n(-c4cccc(C(=O)O)c4)c3n2)cc1 [Compound 6e, 2-(4-Ethoxyphenyl)-9-(3-carboxy)phenyl-8-oxopurine-6-carboxamide] | –
18 | – | 0.49 ± 0.1 | – | – | CCCCCCNC(=O)c1cccc(-n2c(=O)[nH]c3c(C(N)=O)nc(-c4ccc(OCC)cc4)nc32)c1 [Compound 8a, 2-(4-Ethoxyphenyl)-9-(3-hexylcarbamoyl)phenyl-8-oxopurine-6-carboxamide] | –
19 | – | 0.39 ± 0.01 | – | – | CCOc1ccc(-c2nc(C(N)=O)c3[nH]c(=O)n(-c4cccc(C(=O)NCCCCCN=[N+]=[N-])c4)c3n2)cc1 [Compound 8c, 2-(4-Ethoxyphenyl)-9-[3-(5-azidopentylcarbamoyl)]phenyl-8-oxopurine-6-carboxamide] | –
20 | – | 6.37 ± 0.51 | – | – | CCCCSc1nc2c(C(N)=O)nc(-c3ccc(OCC)cc3)nc2n1-c1ccccc1 [Compound 11b, 8-(Butylthio)-2-(4-ethoxyphenyl)-9-phenylpurine-6-carboxamide] | –
21 | – | 2.1 | – | – | CCOc1ccc(-c2nc(C(N)=O)c3nc(SCC(=O)OC)n(-c4ccccc4)c3n2)cc1 [Compound 11f, 2-(4-Ethoxyphenyl)-8-(methoxycarbonylmethylthio)-9-phenylpurine-6-carb oxamide] | –
22 | – | 3.94 ± 0.06 | – | – | CCOc1ccc(-c2nc(C(N)=O)c3nc(SCC(=O)O)n(-c4ccccc4)c3n2)cc1 [Compound 11g, 8-(Carboxymethylthio)-2-(4-ethoxyphenyl)-9-phenylpurine-6-carboxamide] | –
23 | 311.1 to 312.2 °C | – | 3.9 | 9.8 | CCOc1ccc(-c2nc(C#N)c3[nH]c(=O)n(-c4ccc(C(=O)OC)cc4)c3n2)cc1 [Compound 12b, 2-(4-Ethoxyphenyl)-9-(4-methoxycarbonylphenyl)-8-oxopurine-6-carbonitrile] | –
24 | 228 to 230 °C | – | 48.6 | 34 | CCOc1ccc(-c2nc(C#N)c3nc(OC(=O)OCc4ccccc4)n(-c4ccccc4OC)c3n2)cc1 [Compound 17c, Benzyl 6-cyano-2-(4-ethoxyphenyl)-9-(2-methoxyphenyl)purin-8-yl carbonate] | –
25 | 247 to 249 °C | – | 16.9 ± 11.5 | 25.1 ± 0.4 | CCOc1ccc(-c2nc(C#N)c3nc(OC(=O)Oc4ccccc4)n(-c4ccccc4OC)c3n2)cc1 [Compound 17d, 6-Cyano-2-(4-ethoxyphenyl)-9-(2-methoxyphenyl)purin-8-yl phenyl carbonate] | –
26 | 260.5 to 261.6 °C | – | 2.8 | 0.3 | CCOc1ccc(-c2nc(C(=O)NOC)c3[nH]c(=O)n(-c4ccccc4OC)c3n2)cc1 [Compound 19b, 2-(4-Ethoxyphenyl)-9-(2-methoxyphenyl)-8-oxopurine-6-(N-methoxy)carb oxamide] | –
27 | 273.7 to 274.5 °C | – | 65.3 | 60.9 | CCOc1ccc(-c2nc(C(=O)NN)c3[nH]c(=O)n(-c4ccccc4OC)c3n2)cc1 [Compound 20a, 2-(4-Ethoxyphenyl)-9-(2-methoxyphenyl)-8-oxopurine-6-carbohydrazide] | –
28 | 279.6 to 281 °C | – | 47.2 | 6.9 | CCOc1ccc(-c2nc(C(=O)NN(C)C)c3[nH]c(=O)n(-c4ccccc4OC)c3n2)cc1 [Compound 20b, 2-(4-Ethoxyphenyl)-9-(2-methoxyphenyl)-8-oxopurine-6-(N′,N′-dimethyl)carbohydrazide] | –
29 | 229 to 231 °C | – | 87 | 30 | CCOc1ccc(-c2nc(C(=N)NO)c3c(n2)n(-c2ccccc2OC)c(=O)n3C)cc1 [Compound 21a, 2-(4-Ethoxyphenyl)-9-(2-methoxyphenyl)-7-methyl-8-oxopurine-6-(N-hydroxy)carboximidamide] | –
30 | – | – | 56 | 42 | CCOc1ccc(-c2nc(C(=N)NOC)c3c(n2)n(-c2ccccc2OC)c(=O)n3C)cc1 [Compound 21b, 2-(4-Ethoxyphenyl)-9-(2-methoxyphenyl)-7-methyl-8-oxopurine-6-(N-methoxy)carboximidamide] | –
31 | – | 41.6 ± 11.6 | – | 41.6 ± 11.6 | CCOc1ccc(-c2nc(C(N)=O)c3nc(SC(C)=O)n(-c4ccccc4)c3n2)cc1 [Compound 26a, 8-(Acetylthio)-2-(4-ethoxyphenyl)-9-phenylpurine-6-carboxamide] | –
32 | 278.5 to 280 °C | – | – | – | CCOc1ccc(-c2nc(C#N)c3nc(S)n(-c4ccccc4)c3n2)cc1 [Compound 27a, 2-(4-Ethoxyphenyl)-8-mercapto-9-phenylpurine-6-carboxnitrile] | –
33 | 179.2 to 180.4 °C | – | – | – | CCOc1ccc(-c2nc(C#N)c3nc(SC(=O)OCc4ccccc4)n(-c4ccccc4)c3n2)cc1 [Compound 28a, 8-(Benzyloxycarbonylthio)-2-(4-ethoxyphenyl)-9-phenylpurine-6-carboxnitrile] | –
34 | 297 to 299 °C | – | – | – | CCOc1ccc(-c2nc(C#N)c3nc(N)n(-c4ccccc4OC)c3n2)cc1 [Compound 33a, 8-Amino-2-(4-ethoxyphenyl)-9-(2-methoxyphenyl)purine-6-carbonitrile] | –
